17 compounds from ChEMBL document CHEMBL1147621, “The discovery of biaryl acids and amides exhibiting antibacterial activity against Gram-positive bacteria” (2004) can be followed below.

A word on the IC90: it is the concentration at which the effect reaches the 90% level. For orientation: MIC means the smallest concentration in the dilution series that meets the test's criterion for growth inhibition.

The test system of experiment [1] is Bacteria. Description: Antibacterial activity of compound to inhibit the growth of Gram-positive bacteria. It counts as functional.
Experiment [2] concerns Pseudomonas aeruginosa. Description: Antibacterial activity against Pseudomonas aeruginosa W30298. It counts as functional, organism-based.
The next experiment concerns Escherichia coli. Nature of the experiment: Antibacterial activity against Escherichia coli H28233. The experiment is classed as functional, organism-based.
Experiment [3] deals with Staphylococcus aureus. Nature of the experiment: Antibacterial activity against Staphylococcus aureus W30078c. It counts as functional.
Experiment [4] relates to Pseudomonas aeruginosa. Description: Antibacterial activity against Pseudomonas aeruginosa W30279. It counts as functional, organism-based.
In experiment [5] the test system is Staphylococcus aureus. Nature of the experiment: Antibacterial activity of compound to inhibit the growth of Staphylococcus aureus 8325. It counts as functional.
Experiment [6] relates to Staphylococcus aureus. Description: Antibacterial activity against Staphylococcus aureus F2490. The experiment is classed as functional.
Experiment [7] concerns Enterococcus faecium. Nature of the experiment: Antibacterial activity against Enterococcus faecium F24910. The experiment is classed as functional.
The test system of experiment [8] is Streptococcus sp. 'group A'. Description: Antibacterial activity against Grp A Strep T32098. It counts as functional.
In experiment [9] the test system is Streptococcus sp. 'group A'. Description: Antibacterial activity against Grp A Strep S54408. It counts as functional.
For experiment [10], the system named is Staphylococcus aureus. Description: Antibacterial activity against Staphylococcus aureus 8325. The experiment is classed as functional.
Experiment [11] has as its system Enterococcus faecium. Description: Antibacterial activity against E. species. T66429. It counts as functional.
Experiment [12] deals with Bacteria. Nature of the experiment: Antibacterial activity of compound to inhibit the growth of Gram-positive bacteria; Range is 8-12 ug/mL. It counts as functional.
Experiment [13] has as its system Bacteria. Nature of the experiment: Antibacterial activity of compound to inhibit the growth of Gram-positive bacteria; Range is 5-11 ug/mL. It counts as functional.

Structures are written as SMILES. Values after ≈ are worked out from the molar mass of the structure shown. Active and inactive are the calls of the source. Bounds are passed on as bounds.

`O=C(O)[C@@H]1CCCCN1C(=O)c1ccc(Cl)c(-c2ccc(-c3ccccc3)cc2)c1` had an IC90 with Bacteria [1] of 25 µg/mL (≈ 59.5 µM).
On the same count and under the same terms, next, `C[C@H](NC(=O)c1ccc(Cl)c(-c2ccc(Cl)cc2)c1)C(=O)O`: over 50 µg/mL.
`O=C(NC(C(=O)O)c1ccccc1)c1ccc(Cl)c(-c2ccc(-c3ccccc3)cc2)c1` (configuration not stated) came in with a 90% effect concentration (IC90) in the experiment with Bacteria [1] of 10 µg/mL (≈ 22.6 µM).
Same read-out and setting: next, `O=C(N[C@@H](CC1CCCC1)C(=O)O)c1ccc(Cl)c(-c2ccc(Cl)cc2)c1`: 18 µg/mL (≈ 44.3 µM).
Regarding `O=C(N[C@@H](CC1CCCCC1)C(=O)O)c1ccc(Cl)c(-c2cccc(Cl)c2)c1`, the MIC entry in the experiment with Pseudomonas aeruginosa [2], in the experiment on Escherichia coli and in the experiment on Pseudomonas aeruginosa [4] was “inactive” in each case. The minimum inhibitory concentration (MIC) stood at 20 µg/mL (≈ 47.6 µM) against Staphylococcus aureus [3]; 15 µg/mL (≈ 35.7 µM) in the experiment with Staphylococcus aureus [6]; 20 µg/mL (≈ 47.6 µM) with Enterococcus faecium [7]; 20 µg/mL (≈ 47.6 µM) in experiment [8]; 10 µg/mL (≈ 23.8 µM) in experiment [9]; 15 µg/mL (≈ 35.7 µM) in the experiment with Staphylococcus aureus [10]. The compound also displayed an MIC with Enterococcus faecium [11] of 20 µg/mL (≈ 47.6 µM). For the same compound, in the experiment on Staphylococcus aureus [5], the 90% effect level (IC90) was put at 8 µg/mL (≈ 19 µM).
In the case of `Cc1cc(C(=O)N[C@@H](CC2CCCCC2)C(=O)O)ccc1-c1ccc(-c2ccccc2)cc1`, the 90% effect concentration (IC90) with Staphylococcus aureus [5] was determined as 2 µg/mL (≈ 4.53 µM).
For the compound `O=C(N[C@@H](Cc1ccccc1)C(=O)O)c1ccc(Cl)c(-c2ccc(Cl)cc2)c1`, in the experiment with Bacteria [1], the IC90 is over 50 µg/mL.
On the same count and under the same terms, the value for `O=C(N[C@@H](CC1CCNCC1)C(=O)O)c1ccc(Cl)c(-c2ccc(Cl)cc2)c1` was over 50 µg/mL; that for `NC(=O)c1ccc(Cl)c(-c2ccc(-c3ccccc3)cc2)c1` was over 50 µg/mL.
Take `O=C(O)c1ccc(Cl)c(-c2ccc(Cl)cc2)c1`: the IC90 in the experiment on Bacteria [1] is over 50 µg/mL.
The same measure, in the same setting: the value for `COC(=O)[C@H](CC1CCCCC1)NC(=O)c1ccc(Cl)c(-c2ccc(Cl)cc2)c1` was over 50 µg/mL.
As for `O=C(N[C@@H](CC1CCCCC1)C(=O)O)c1ccc(Cl)c(-c2ccc(Cl)cc2)c1`, the MIC entry with Pseudomonas aeruginosa [2], with Escherichia coli and in the experiment on Pseudomonas aeruginosa [4] was “inactive” each time. In addition, the MIC in the experiment with Staphylococcus aureus [3] was 20 µg/mL (≈ 47.6 µM); in the experiment with Staphylococcus aureus [6], 20 µg/mL (≈ 47.6 µM); with Enterococcus faecium [7], over 20 µg/mL; in experiment [8] it was 20 µg/mL (≈ 47.6 µM); in [9], 10 µg/mL (≈ 23.8 µM); against Staphylococcus aureus [10], 20 µg/mL (≈ 47.6 µM). In addition, in the experiment on Enterococcus faecium [11], the minimum inhibitory concentration (MIC) was 20 µg/mL (≈ 47.6 µM). The 90% effect level with Staphylococcus aureus [5] (IC90) was put at 10 µg/mL (≈ 23.8 µM).
`Cc1ccc(C(=O)N[C@@H](CC2CCCCC2)C(=O)O)cc1-c1ccc(-c2ccccc2)cc1` displayed an IC90 with Staphylococcus aureus [5] of 3 µg/mL (≈ 6.79 µM).
In turn, `NC(=O)[C@H](CC1CCCCC1)NC(=O)c1ccc(Cl)c(-c2ccc(Cl)cc2)c1` yielded a concentration for an effect of 90% (IC90) in the experiment on Bacteria [12] of 12 µg/mL (≈ 28.6 µM).
On to `O=C(N[C@@H](CC1CCCCC1)C(=O)O)c1cccc(-c2ccc(-c3ccccc3)cc2)c1`, for which the MIC result in the experiment with Pseudomonas aeruginosa [2], in the experiment with Escherichia coli and in the experiment with Pseudomonas aeruginosa [4] was “inactive” each time. Besides, the MIC was found to be 20 µg/mL (≈ 46.8 µM) against Staphylococcus aureus [3]; 20 µg/mL (≈ 46.8 µM) against Staphylococcus aureus [6]; 20 µg/mL (≈ 46.8 µM) against Enterococcus faecium [7]; 20 µg/mL (≈ 46.8 µM) in experiment [8]; 10 µg/mL (≈ 23.4 µM) in [9]; 20 µg/mL (≈ 46.8 µM) with Staphylococcus aureus [10]. The compound also came in with an MIC against Enterococcus faecium [11] of 20 µg/mL (≈ 46.8 µM). The 90% effect concentration (IC90) with Staphylococcus aureus [5] was found to be 4 µg/mL (≈ 9.36 µM).
On to `O=C(N[C@H](CC1CCCCC1)C(=O)O)c1ccc(Cl)c(-c2ccc(Cl)cc2)c1`, for which it took 11 µg/mL (≈ 26.2 µM) to reach the 90% level with Bacteria [13] (IC90).
`NC(=O)c1ccc(Cl)c(-c2ccc(Cl)cc2)c1`: in the experiment with Bacteria [1], the IC90 was over 50 µg/mL.
